Several values for one entry are separate records, joined by “and”; a condition that tells them apart may be missing. Identical values can stand only once. After the bases stand the sugars from the 5' end (letter, count) and the backbone: PS all phosphorothioate, else s phosphorothioate and o phosphodiester by linkage. HELM strings list units from the 5' end as sugar, base in round brackets, then linkage (d deoxyribose, r ribose, m 2'-O-methyl, p phosphodiester). Methylation of C is not given here. [moe] = 2'-O-(2-methoxyethyl) (MOE); [cEt] = constrained ethyl (cEt); [sp] = phosphorothioate linkage; e = 2'-O-(2-methoxyethyl) (MOE); k = constrained ethyl (cEt); d = 2'-deoxy (DNA)
Legend:
KRAS = conditions: ASO
HBV = conditions: ASO, HepG2, 0.07 µM

ATTAGTCTCCATTAGT (sugars k3 d10 k3, PS) was tested, and the target mRNA inhibition (KRAS; A431, 2 µM) was 29%.

ATTCAAAGTTCACATA (sugars k3 d10 k3, PS) was tested, and the target mRNA inhibition (KRAS; A431, 2 µM) was 0%.

Work on ATTGTGCAATGGTGAC (sugars k3 d10 k3, PS) yielded a target mRNA inhibition (KRAS; A431, 2 µM) of 57%.

For CAACTGCATGCACCAA (sugars k3 d10 k3, PS), the target mRNA inhibition (KRAS; A431, 2 µM) was 31%.

CACTTGTACTAGTATG (sugars k3 d10 k3, PS) gave a target mRNA inhibition (KRAS; A431, 2 µM) of 36%.

For CAGATTGTGCTGAGCT (sugars k3 d10 k3, PS), the target mRNA inhibition (KRAS; A431, 2 µM) was 29%.

“CAGTGTGACTCAGTTA (sugars kddddddddddkekek, PS)” showed a target mRNA inhibition (KRAS; A431, 2 µM) of 32%.

“CAGTGTGACTCAGTTA (sugars kdddddddddkekeke, PS)” gave a target mRNA inhibition (KRAS; A431, 2 µM) of 54%.

For “CAGTGTGACTCAGTTA (sugars kkdddddddddkekek, PS)”, the target mRNA inhibition (KRAS; A431, 2 µM) was 56%.

For “CAGTGTGACTCAGTTA (sugars kkkdddddddddkeke, PS)”, the target mRNA inhibition (KRAS; A431, 2 µM) was 55%.

Work on “CAGTGTGACTCAGTTA (sugars kkkddddddddkdkdk, PS)” yielded a target mRNA inhibition (KRAS; A431, 0.185 µM) of 10%, a target mRNA inhibition (KRAS; A431, 0.556 µM) of 24% and a target mRNA inhibition (KRAS; A431, 1.667 µM) of 45%. The target mRNA inhibition (KRAS; A431, 2 µM) was 60% and 50% and the target mRNA inhibition (KRAS; A431, 5 µM) was 66%.

“CAGTGTGACTCAGTTA (sugars kkkddddddddkekek, PS)” was tested, and the target mRNA inhibition (KRAS; A431, 0.185 µM) was 28%, the target mRNA inhibition (KRAS; A431, 0.556 µM) was 24% and the target mRNA inhibition (KRAS; A431, 1.667 µM) was 46%. For the same substance, the target mRNA inhibition (KRAS; A431, 2 µM) was 63% and the target mRNA inhibition (KRAS; A431, 5 µM) was 71%.

With “CAGTGTTAAGAGAACT (sugars kddddddddddkekek, PS)” the target mRNA inhibition (KRAS; A431, 2 µM) was 23%.

CATTACTTTTTGACAA (sugars k3 d10 k3, PS) gave a target mRNA inhibition (KRAS; A431, 2 µM) of 8%.

Substance CATTCAAAGTTCACAT (sugars k3 d10 k3, PS) has a target mRNA inhibition (KRAS; A431, 2 µM) of 2%.

“CATTCAAAGTTCACAT (sugars kddddddddddkekek, PS)” gave a target mRNA inhibition (KRAS; A431, 2 µM) of 43%.

For “CATTTATGTGACTAGA (sugars kdddddddddkekeke, PS)”, the target mRNA inhibition (KRAS; A431, 2 µM) was 24%.

In the case of CCAGTGATACTTTCAC (sugars k3 d10 k3, PS), the target mRNA inhibition (KRAS; A431, 2 µM) is reported as 15%.

Substance “CCAGTGATACTTTCAC (sugars kdddddddddkekeke, PS)” has a target mRNA inhibition (KRAS; A431, 2 µM) of 16%.

With “CCAGTGTTAAGAGAAC (sugars k3 d9 k3 e1, PS)” the target mRNA inhibition (KRAS; A431, 2 µM) was 55%.

CCAGTGTTAAGAGAAC (sugars k3 d10 k3, PS) showed a target mRNA inhibition (KRAS; A431, 2 µM) of 33%.

“CCAGTGTTAAGAGAAC (sugars kkdddddddddkdkdk, PS)” showed a target mRNA inhibition (KRAS; A431, 2 µM) of 38%.

In the case of “CCAGTGTTAAGAGAAC (sugars kkdddddddddkekek, PS)”, the target mRNA inhibition (KRAS; A431, 2 µM) is reported as 43%.

“CCATTCAAAGTTCACA (sugars kkddddddddddkeke, PS)” showed a target mRNA inhibition (KRAS; A431, 0.185 µM) of 19%, a target mRNA inhibition (KRAS; A431, 0.556 µM) of 32% and a target mRNA inhibition (KRAS; A431, 1.667 µM) of 50%. It also gave a target mRNA inhibition (KRAS; A431, 2 µM) of 63%, a target mRNA inhibition (KRAS; A431, 5 µM) of 67% and a target mRNA inhibition (KRAS; NCI-H460, 0.037 µM) of 54.7%.

With “CCATTCAAAGTTCACA (sugars kkdddddddddkekek, PS)” the target mRNA inhibition (KRAS; A431, 2 µM) was 36%.

Substance “CCATTTATGTGACTAG (sugars kkdddddddddkdkdk, PS)” has a target mRNA inhibition (KRAS; A431, 2 µM) of 43%.

Substance “CCATTTATGTGACTAG (sugars kkdddddddddkekek, PS)” has a target mRNA inhibition (KRAS; A431, 2 µM) of 25%.

CGAGAATGGATATTCA (sugars k3 d10 k3, PS) showed a target mRNA inhibition (KRAS; A431, 2 µM) of 14%.

Work on CTAAAACAAATGCTAA (sugars k3 d10 k3, PS) yielded a target mRNA inhibition (KRAS; A431, 2 µM) of 15%.

With CTGTAGTTTCACATAG (sugars k3 d10 k3, PS) the target mRNA inhibition (KRAS; A431, 2 µM) was 25%.

Substance CTGTCTATTCATACCA (sugars k3 d10 k3, PS) has a target mRNA inhibition (KRAS; A431, 2 µM) of 34%.

Substance CTGTGAAACTCTCTAT (sugars k3 d10 k3, PS) has a target mRNA inhibition (KRAS; A431, 2 µM) of 29%.

For CTTACAAATCTGAATT (sugars k3 d10 k3, PS), the target mRNA inhibition (KRAS; A431, 2 µM) was 7%.

CTTCATTGTTTAAAAA (sugars k3 d10 k3, PS) gave a target mRNA inhibition (KRAS; A431, 2 µM) of 11%.

“CTTGATTTGTCAGCAG (sugars k3 d9 k3 e1, PS)” gave a target mRNA inhibition (KRAS; A431, 2 µM) of 46%.

“CTTGATTTGTCAGCAG (sugars kkkddddddddkekek, PS)” showed a target mRNA inhibition (KRAS; A431, 2 µM) of 41%.

“RNA1{[moe](T)[sp].[moe](T)[sp].[moe](C)[sp].d(C)[sp].d(G)[sp].d(C)[sp].d(A)[sp].d(G)[sp].d(T)[sp].d(A)[sp].d(T)[sp].d(G)[sp].d(G)[sp].[cEt](A)[sp].[cEt](T)[sp].[cEt](C)}$$$$V2.0” was tested, and the target mRNA inhibition (HBV) was 60% and 68%.

With “RNA1{[moe](T)[sp].[moe](T)[sp].[moe](T)[sp].[moe](A)[sp].d(T)[sp].d(G)[sp].d(C)[sp].d(C)[sp].d(T)[sp].d(A)[sp].d(C)[sp].d(A)[sp].d(G)[sp].[moe](C)[sp].[moe](C)[sp].[moe](T)}$$$$V2.0” the target mRNA inhibition (HBV) was 51% and 38%.

“RNA1{[moe](T)[sp].[moe](T)[sp].[moe](T)[sp].d(A)[sp].d(T)[sp].d(G)[sp].d(C)[sp].d(C)[sp].d(T)[sp].d(A)[sp].d(C)[sp].d(A)[sp].[moe](G)[sp].[moe](C)[sp].[moe](C)[sp].[moe](T)[sp].[moe](C)}$$$$V2.0” was tested, and the target mRNA inhibition (HBV) was 62% and 49%.

In the case of “RNA1{[moe](T)[sp].[moe](T)[sp].d(A)[sp].d(T)[sp].d(G)[sp].d(C)[sp].d(C)[sp].d(T)[sp].d(A)[sp].d(C)[sp].d(A)[sp].[moe](G)[sp].[moe](C)[sp].[moe](C)[sp].[moe](T)[sp].[moe](C)[sp].[moe](C)}$$$$V2.0”, the target mRNA inhibition (HBV) is reported as 56% and 57%.

For “RNA1{[moe](T)[sp].[moe](T)[sp].d(A)[sp].d(T)[sp].d(G)[sp].d(C)[sp].d(C)[sp].d(T)[sp].d(A)[sp].d(C)[sp].d(A)[sp].[moe](G)[sp].[moe](C)[sp].[moe](C)[sp].[moe](T)[sp].[moe](C)}$$$$V2.0”, the target mRNA inhibition (HBV) was 44% and 46%.

“RNA1{[moe](T)[sp].[moe](T)[sp].d(C)[sp].d(C)[sp].d(G)[sp].d(C)[sp].d(A)[sp].d(G)[sp].d(T)[sp].d(A)[sp].d(T)[sp].[moe](G)[sp].[moe](G)[sp].[moe](A)[sp].[moe](T)[sp].[moe](C)[sp].[moe](G)}$$$$V2.0” was tested, and the target mRNA inhibition (HBV) was 67% and 72%.

— the OligoGym collection
